The conditions of data set [1]: mice; cited from earlier work.
Data set [2] deals with Pneumocystis carinii. Nature of the data set: Anti-Pneumocystis carinii test (induced Pneumocystis carinii infection in immunosuppressed mice), oral. Format: in vivo. The following applies: for Number of animals with organism after treatment/Number of animals treated, Giesma Stain: mice (Table 8); for Giemsa Stain Score / Silver stain Score / Giemsa Stain I/T (animals with organism after treatment/animals treated) / Silver stain I/T (animals with organism after treatment/animals treated): mice; for Giemsa Stain Score / Silver stain Score: mean score on 0 to 5+ scale.

Data set [3] has as its system Plasmodium berghei KBG-173. Nature of the data set: Prophylactic test, Plasmodium berghei infection in mice, oral. The format is in vivo. The following applies: single dose of 2 mg/kg. An excerpt:
CD-I male or female mice, 5 weeks of age, were infected with 5×10^4 parasitized erythrocytes ot Plasmodium berghei KBG-173 mm strain. Blood films were taken on day +6 and weekly thereafter until day+30. […]

For data set [4], the system named is trypanosome isolate KETRI 243As103. Nature of the data set: Antitrypanosomal activity, trypanosome isolates grown as blood forms in HMI-18. The format is cell-based, Trypanosoma. The following applies: KETRI 243As103, after 48 h, 20% horse serum; succinate. On the procedure: (§1) Compounds were tested vs. trypanosome isolates grown as blood forms in HMI-18 (Hirumi H., Hirumi, K. 1989. Continuous Cuitivation of Trypanosoma brucei bloodstream forms in a medium containing a low concentration of serum portein without feeder cell layers. J. Parasitol. 75:985-989) containing 20% horse serum.

The subject of data set [5] is trypanosome isolate EATRO Lab 110. The data set is described as above. The format is cell-based, Trypanosoma. Particulars: EATRO Lab 110, after 48 h, 20% horse serum, read-out: IC50. How it is done:
as §1

In data set [6] the test system is trypanosome isolate KETRI 269. The description is as above. The format is cell-based, Trypanosoma. Particulars: KETRI 269, after 48 h, 20% horse serum, read-out: IC50. On the procedure: as §1
The subject of data set [7] is trypanosome isolate KETRI 243. The data set is described as above. The following applies: KETRI 243, after 48 h, 20% horse serum; succinate; read-out: IC50. Format: cell-based, Trypanosoma. On the procedure: as §1
The test system of data set [8] is Plasmodium berghei KBG-173. Format: in vivo. The following applies: for Parasitemia Day 6: percentage of red blood cells with parasites, control 31.8. How it is done:
Blood Schizontocidal Test (Trophozoite-Induced Plasmodium berghei Infection in mice University of Miami, Test System: Thompson Test
Drugs were mixed in 0.5% hydroxycellulose 0.1% Tween 80 and administered orally b.i.d. on days 3, 4 and 5 postinfection. CD-1 male or female mice, 5 weeks of age, were infected with 5×10^4 parasitized erythrocytes of Plasmodium berghei KBG-173 mm strain. Blood films were taken on day +6 and weekly thereafter until day +60. Parasitemias were calculated and SD90 value (dose suppressing 90% of the parasites in treated groups compared with the infected non-treated controls) on day +6 postinfection. Mortality data was tabulated for 60 days at which time all mice surviving that were blood film negative were considered cured.
[…] The activity of these compounds were compared with the untreated control and “racemate” which is a mixture of equal amount of each enantiomer X and Y. In untreated controls, death occurs within 8-9 days. Compounds which are effective against Plasmodium berghei infection increase the mean survival time of the infected animals when compared with the untreated controls. Mice that survive after thirty days and are free of parasites in blood are considered cured.
Efficacy of the drug is determined by the number of cures at the end of a 30 day period and the increase in mean survival time over the control (ΔMST). The effect of the test drugs also could be determined by the reduction of the parasitemia (percentage of the red blood cells detected with the parasites) over the untreated control on day 6, one day after the treatment is completed. Both these methods yield virtually identical results. If the dose of test compounds are inadequate, after initial clearance, residual parasites will multiply and relapses will occur within thirty days. The blood schizontocidal activities (suppressive antimalarial) of X, Y, and racemate against P. berghei in mice are shown in Table 11.

The conditions of data set [9]: rhesus monkey; cited from earlier work.
[10] abbreviates: 0.25 mg/kg/day, 0.75 mg/kg total, succinate.
Setting [11] is: 1 mg/kg/day, 3 mg/kg total, succinate.
[12] abbreviates: 4 mg/kg/day, 12 mg/kg total, succinate.
Where [13] appears, read: oral 0.25 mg/kg/day (x21), succinate, 0.25 mg/kg/day.

Where two headings read alike, the source gives them in different places.

We go through four compounds from patent US6376511B2, “8-aminoquinolines” (The University of Mississippi, priority 1999, dated 2002).

Usually IC50 stands for the concentration at which inhibition is half-maximal.

`COc1cc(NC(C)CCCN)c2ncccc2c1` (single isomer, unassigned; (+)) [(+) Primaquine, reference compound]: the “toxicity relative to the l-form” value in data set [1] is given as “approximately 4 times”. In addition, the “Number of animals with organism after treatment/Number of animals treated, Giesma Stain” value is recorded as 10/10 in [2] (oral 2 mg/kg/day (x21)); 7/10 in data set [2] (oral 5 mg/kg/day (x21), listed as (+) Enantiomer, 5 mg/kg/day); 1/10 in data set [2] (oral 10 mg/kg/day (x21), listed as (+) Enantiomer, 10 mg/kg/day).

As to `COc1cc(NC(C)CCCN)c2nccc(C)c2c1Oc1ccc(Cl)c(Cl)c1` (single isomer, unassigned; (+)) [X, (+) 8-[(4-amino-1-methylbutyl)amino]-5-(3,4-dichlorophenoxy)-6-methoxy-4-methylquinoline succinate], the “Mice surviving day 60/Mice infected and treated” value in data set [3] (day of treatment 2 (Table 5), listed as X Enantiomer, succinate, 2 mg/kg) is given as 0/5; in [3] (day of treatment -2 (Table 5), listed as X Enantiomer, succinate, 2 mg/kg), 0/5; in [3] (day of treatment -3 (Table 5)), 0/5; in data set [3] (day of treatment -4 (Table 5)), 0/5; in data set [3] (day of treatment -5 (Table 5)), 0/5. The IC50 in [4] came to 36 µM; in [5] (Trypanosoma, 48 h) it was 8.3 µM; in [6] (Trypanosoma, 48 h), 37 µM; in data set [7] it was 34 µM. Further, the entries for the “Parasitemia Day 6” value in data set [8] (setting [10]), in data set [8] (setting [11]) and in data set [8] (setting [12]) were 28.2, 27.4 and 1.1, respectively. The “Mice Alive Day 26” value in [8] (setting [10]), in [8] (setting [11]) and in [8] (setting [12]) was 0/5 throughout. Also, the “ΔMST (increase in mean survival time over the control)” value came out at 0 days in data set [8] (setting [10]); 6 days in data set [8] (1 mg/kg/day, 3 mg/kg total); 11 days in [8] (4 mg/kg/day, 12 mg/kg total). In addition, the “Giemsa Stain Score” value in data set [2] (setting [13]) came to 0.55 ± 0.16; in data set [2] (oral 0.5 mg/kg/day (x21)) it was 0.20 ± 0.10; in data set [2] (oral 1 mg/kg/day (x21)) it was 0.0; in data set [2] (oral 5 mg/kg/day (x21)) it was 0.0. The “Silver stain Score” value in data set [2] (setting [13]) came out at 1.15 ± 0.16; in data set [2] (oral 0.5 mg/kg/day (x21)) it was 0.1 ± 0.1; in [2] (oral 1 mg/kg/day (x21)), 0.0; in data set [2] (oral 5 mg/kg/day (x21)), 0.0. Further, the “Giemsa Stain I/T (animals with organism after treatment/animals treated)” value in data set [2] (setting [13]) is reported as 6/10; in data set [2] (oral 0.5 mg/kg/day (x21)) it was 2/10; in data set [2] (oral 1 mg/kg/day (x21)) it was 0/10; in data set [2] (oral 5 mg/kg/day (x21)), 0/10. For the same compound, the “Silver stain I/T (animals with organism after treatment/animals treated)” value in [2] (setting [13]) was 10/10; in [2] (oral 0.5 mg/kg/day (x21)) it was 2/10; in [2] (oral 1 mg/kg/day (x21)), 0/10; in [2] (oral 5 mg/kg/day (x21)), 0/10.

Turning to `COc1cc(NC(C)CCCN)c2ncccc2c1` (single isomer, unassigned; (-)) [(−) Primaquine, reference compound], in data set [9], the “toxicity relative to d-primaquine” value is reported as 3 to 5 times. Besides, the “toxicity relative to racemic primaquine” value in data set [9] is “at least twice as toxic”. The “Number of animals with organism after treatment/Number of animals treated, Giesma Stain” value was 10/10 in data set [2] (oral 5 mg/kg/day (x21), listed as (−) Enantiomer, 5 mg/kg/day) and 10/10 in data set [2] (oral 10 mg/kg/day (x21), listed as (−) Enantiomer, 10 mg/kg/day).

As for `COc1cc(NC(C)CCCN)c2nccc(C)c2c1Oc1ccc(Cl)c(Cl)c1` (single isomer, unassigned; (-)) [Y, (−)-8-[(4-amino-1-methylbutyl)amino]-5-(3,4-dichlorophenoxy)-6-methoxy-4-methylquinoline succinate], the “Mice surviving day 60/Mice infected and treated” value in data set [3] (day of treatment 2 (Table 5), listed as Y Enantiomer, succinate, 2 mg/kg) is recorded as 5/5; in [3] (day of treatment -2 (Table 5), listed as Y Enantiomer, succinate, 2 mg/kg), 1/5; in data set [3] (day of treatment -3 (Table 5)), 0/5; in data set [3] (day of treatment -4 (Table 5)), 0/5; in [3] (day of treatment -5 (Table 5)), 0/5. The IC50 in data set [4] amounted to 17.5 µM; in data set [5] (succinate), 13.5 µM; in data set [6] (succinate), 27 µM; in [7], 11 µM. Moreover, the “Parasitemia Day 6” value was found to be 0.2 in data set [8] (setting [10]), 0.0 in data set [8] (setting [11]) and 0.0 in data set [8] (setting [12]). The “Mice Alive Day 26” value in data set [8] (setting [10]) is reported as 0/0; in data set [8] (setting [11]) it was 4/5; in [8] (setting [12]), 5/5. The “ΔMST (increase in mean survival time over the control)” value came to 11.6 days in [8] (setting [10]) and 13.6 days in data set [8] (setting [11]). Further, the “activity in the mouse model of PCP, enantiomer comparison” value in data set [2] ((−) versus (+) enantiomer of DN3-27-1) is listed as “significantly greater activity than the (+) enantiomer”. Moreover, the “Giemsa Stain Score” value in data set [2] (setting [13]), in data set [2] (oral 1 mg/kg/day (x21)) and in [2] (oral 5 mg/kg/day (x21)) was 0.0 in each case. In addition, the “Silver stain Score” value in data set [2] (setting [13]), in [2] (oral 1 mg/kg/day (x21)) and in [2] (oral 5 mg/kg/day (x21)) was 0.0 throughout. For the same compound, the “Giemsa Stain I/T (animals with organism after treatment/animals treated)” value in data set [2] (setting [13]), in [2] (oral 1 mg/kg/day (x21)) and in data set [2] (oral 5 mg/kg/day (x21)) was 0/10 throughout. The “Silver stain I/T (animals with organism after treatment/animals treated)” value in [2] (setting [13]), in data set [2] (oral 1 mg/kg/day (x21)) and in [2] (oral 5 mg/kg/day (x21)) was 0/10 each time.
